From publication PMC12223813, “Antiproliferative and Trypanocidal Activity of Ivermectin Bioconjugates” (ACS Omega, 2025)

Legend:
[1] = system: human promyelocytic leukemia HL-60 cells; assay: Cytotoxic activity, resazurin cell viability assay; format: cell-based; conditions: 72 h total (24 h + 48 h with resazurin), mean ± SD of three independent experiments
Procedure: (§1) The trypanocidal and cytotoxic activities of the newly synthesized IVR bioconjugates and their conjugation partners were determined for bloodstream forms of T. brucei brucei and human myeloid HL-60 cells in vitro using the resazurin cell viability assay as previously described.
(§2) Test compounds were assayed at 10-fold dilutions ranging from 100 μM to 1 nM in the presence of 0.9% DMSO. Controls were grown in the culture medium containing only 0.9% DMSO. The assays were cultured in an incubator at 37 °C in a humidified atmosphere containing 5% CO2. After 24 h incubation, 20 μL of 0.5 mM resazurin (prepared in sterile PBS) was added, and the cultures were grown for another 48 h. Then, the proliferation of the cells was determined by measuring the absorbance at 570 nm (test wavelength) and 630 nm (reference wavelength) using a microplate reader.

in vitro = conditions: human
Procedure: as §1, §2

[2] = system: bloodstream forms of T. b. brucei (427-221a clone); assay: microbe, parasite or virus in culture; conditions: for selectivity GI50 ratio: GI50(HL-60)/GI50(T. brucei); for GI50: Trypanosoma brucei, 72 h, read-out: T. brucei GI50, bloodstream forms, 72 h total (24 h + 48 h with resazurin), mean ± SD of three independent experiments
Procedure: as §1, §2

[3] = system: HCT-116, human primary colon cancer cell line; assay: Antiproliferative activity, MTT assay; format: cell-based; conditions: for IC50: Homo sapiens, HCT-116, 72 h, MTT, mean ± SD; for HCT-116 SI: SI = IC50 HaCaT/IC50 HCT-116
Procedure: (§3) Additionally, to assess the selectivity of these compounds toward cancer cells, we included an immortalized keratinocyte cell line from adult human skin (HaCaT) in the antiproliferative activity tests. Doxorubicin served as the reference anticancer drug.
(§4) The culture media were enriched with 10% fetal bovine serum (FBS, Sigma-Aldrich, St. Louis, MO, USA), 20 mM HEPES (Biowest, Nuaillé, France), and antibiotics (100 U/mL penicillin and 100 μg/mL streptomycin) obtained from Gibco (Grand Island, NY, USA). The cells were maintained in a humidified incubator at 37 °C with 5% CO2 until they reached 80–90% confluence, after which they were used for further experiments.
(§5) To assess the cytotoxicity, the cells (0.5 × 10^4/well) were plated in 96-well plates and allowed to adhere for 24 h. The MTT (3-(4,5-dimethylthiazol-2-yl)-2,5-diphenyltetrazolium bromide) assay was used to evaluate the cytotoxic effects of IVR bioconjugates on all tested cell lines. After 24 h incubation, cells were exposed to varying concentrations (1 to 100 μM) of the test compounds for 72 h. Following the treatment, the medium was discarded, and a 0.5 mg mL^–1 MTT solution was added to each well and incubation was continued for another 4 h. Mitochondrial enzyme activity facilitated the formation of formazan crystals, which were subsequently dissolved in DMSO-isopropanol (1:1, v/v), producing a violet-colored solution. A 100 μL aliquot of this solution was transferred to the well, and absorbance was recorded at 570 nm using a MultiscanGo spectrophotometer (ThermoFisher Scientific, Carlsbad, CA, USA).
(§6) Cytotoxicity was quantified by comparing the absorbance of the treated cells to that of untreated controls using the formula: [A]/[B] × 100, where [A] represents the absorbance of the treated sample and [B] corresponds to the absorbance of the control sample. A decrease in MTT levels reflects a decrease in cell viability.

[4] = system: MDA-MB-231, human triple-negative breast cancer cell line; assay: Antiproliferative activity, MTT assay; format: cell-based; conditions: for IC50: Homo sapiens, MDA-MB-231, 72 h, MTT, mean ± SD; for MDA-MB-231 SI: SI = IC50 HaCaT/IC50 MDA-MB-231
Procedure: as §3, §4, §5, §6

[5] = system: PC3, human metastatic prostate cancer cell line; assay: Antiproliferative activity, MTT assay; format: cell-based; conditions: for IC50: Homo sapiens, 72 h, MTT, mean ± SD; for PC3 SI: SI = IC50 HaCaT/IC50 PC3
Procedure: as §3, §4, §5, §6

[6] = system: A549, human lung cancer cell line; assay: Antiproliferative activity, MTT assay; format: cell-based; conditions: for IC50: Homo sapiens, A549, 72 h, MTT, mean ± SD; for A549 SI: SI = IC50 HaCaT/IC50 A549
Procedure: as §3, §4, §5, §6

[7] = system: HaCaT, human immortalized keratinocyte cell line; assay: Cytotoxicity toward normal cells, MTT assay; format: cell-based; conditions: 72 h, mean ± SD
Procedure: as §3, §4, §5, §6

Row | Compound | GI50 [1] | selectivity ratio (in vitro) | selectivity GI50 ratio [2] | antitrypanosomal activity, times stronger than IVR ([2]; relative to IVR GI50) | antitrypanosomal activity, times stronger than artesunate ([2]; relative to artesunate GI50) | IC50 [3] | HCT-116 SI [3] | IC50 [4] | MDA-MB-231 SI [4] | IC50 [5] | PC3 SI [5] | IC50 [6] | A549 SI [6] | IC50 [7] | GI50 [2]
1 | CCC(C)C1OC2(CCC1C)CC1CC(CC=C(C)C(OC(=O)Cn3cc(COC(=O)CCC(=O)OC4OC5OC6(C)CCC7C(C)CCC(C4C)C57OO6)nn3)C(C)C=CC=C3COC4C(O)C(C)=CC(C(=O)O1)C34O)O2 (stereo not drawn) [compound 16, Ivermectin–Artesunate Conjugate] | 18 ± 6 µM | > 256 | 46.2 | 7 times | 9 times | 4.5 ± 0.6 µM | >22.2 | 13 ± 4.1 µM | >7.7 | 20.8 ± 7.2 µM | >4.8 | 3.8 ± 1.3 µM | >26.3 | > 100 µM | –
2 | Cc1ncc([N+](=O)[O-])n1CCO [metronidazole, reference compound] | > 100 µM | – | ∼1.0 | – | – | > 100 µM | ∼1.0 | 14.9 ± 3.9 µM | >6.7 | 57 ± 6.1 µM | >1.8 | > 100 µM | ∼1.0 | > 100 µM | –
3 | C=C[C@H]1C[N@@]2CC[C@H]1C[C@@H]2[C@@H](O)c1ccnc2ccc(OC)cc12 [quinidine, reference compound] | > 100 µM | – | – | – | – | 67.4 ± 8.9 µM | – | 76.2 ± 4.6 µM | – | 86.1 ± 1.2 µM | – | 55.8 ± 5.3 µM | – | > 100 µM | 0.32 ± 0.04 µM
4 | C=C[C@H]1C[N@@]2CC[C@H]1C[C@H]2[C@H](O)c1ccnc2ccc(OC)cc12 [quinine, reference compound] | > 100 µM | – | – | – | – | 32.8 ± 3.8 µM | – | 54.4 ± 7 µM | – | 56.3 ± 7.2 µM | – | 56.4 ± 3.2 µM | – | > 100 µM | 1.1 ± 0.3 µM
